# From patent publication US20090192198A1, “INHIBITORS OF THE 11-BETA-HYDROXYSTEROID DEHYDROGENASE TYPE 1 ENZYME” (Abbott Laboratories, priority 2005, published 2009)
# Columns and labels:
# [1] = tested on: serotonin (5-HT) levels (medial prefrontal cortex, hippocampus); assay: Microdialysis, cortical/hippocampal serotonin release; assay type: in vivo, rat; conditions: single administration 30 mg/kg, p.o.; medial prefrontal cortex and hippocampus (FIGS. 7a, 7b)
# Method: (§1) Microdialysis studies (resting or challenging conditions) in freely moving, male Sprague Dawley rats (Janvier, 295-315 g, n=5-8/treatment group) were performed using stereotactically instrumented microdialysis probes (CMA/12-14-2): mPFC, hippocampus. Aliquots of the same microdialysate fractions (6 before, and 9-12 after compound administration) were analyzed either for acetylcholine or for serotonin by HPLC and electrochemical detection.
# This is a feature shared by marketed anti-depressive drugs and might indicate the potential use for 11β-HSD1 inhibitors as antidepressants/anxiolytic drugs. These findings remain to be confirmed by (i) investigating 11β-HSD1 inhibitors from different chemotype(s) in selected microdialysis studies and/or (ii) in animal models of depression/anxiety.
# Male Sprague Dawley rats = assay: Short-term social recognition memory in the rat; assay type: in vivo; conditions: 30 mg/kg po at 24, 18 and 1 hour before first juvenile exposure, vs vehicle control rats (FIG. 4)
# Method: Social memory and social cognition are impaired in disorders such as Alzheimer's disease and schizophrenia. One of the more commonly used preclinical models of social recognition memory is short-term social recognition in the rat, a model of short-term memory based on the recognition of a juvenile rat by an adult rat. […] The juvenile rat is then removed and reintroduced 120 min later, and interactive behavior of the adult rat is again monitored. If memory has been lost over the interval between trials 1 and 2, the extent of interaction is equal (expressed as a ratio of investigation time of T1/T2) and the ratio will be close to 1. However, if the adult remembers the juvenile, the investigation ratio declines. To test for non-specific effects, a novel juvenile is introduced at 120 minutes instead of the familiar juvenile. […]
# Rats were pre-dosed po at 24, 18 and 1 hour before first juvenile rat exposure with vehicle, or Compound CC (30 mg/kg). […] The time the adult spent exploring (sniffing, grooming, close following) the juvenile during this test session was recorded, and defined as the first investigation duration. […] Data were analyzed using a one-way analysis of variance. If there was a significant effect, subsequent post hoc significance was determined using Dunnett's multiple comparison testing (p<0.05 was regarded as significant).
# Fisher rats = assay: Rat wake EEG power spectrum and REM sleep parameters; assay type: in vivo; conditions: 30 mg/kg, 3 times at 24, 26, and 0.1 hours before measurement
# Method: EEG of Fisher rats (n=8/group) with chronically implanted supracortical EEG-electrodes were analyzed for an 8 h period. Intraindividual drug-induced changes of power spectra were analyzed. For REM sleep the number of REM episodes, latency to first REM, and total REM time was analyzed.
# [2] = tested on: acetylcholine release (mPFC, hippocampus); assay: Microdialysis, cortical/hippocampal acetylcholine release; assay type: in vivo, rat; conditions: single administration 30 mg/kg, p.o.
# Method: as §1
# HSD-1 = assay: Monkey ex vivo HSD1 activity (cortisone to cortisol in harvested tissue); parameters: species or system Cynomolgus Monkeys
# Method: Harvested tissues (approximately 150 mg) were minced into small, 2 mm pieces in the presence of 5× volume of incubation buffer. Cortisone at final concentrations of 0, 3, 10 or 30 μM was added to each well. Cell culture plates with tissues were incubated at 37° C. for three hours. Two-hundred μL of tissue culture supernatant was then removed and spun at 1000 rpm in an Eppindorf tube, and then 100 μL of resulting supernatant was aliquotted into two tubes for LCMS analysis of cortisol.
# phosphorylated CREB = assay: Phosphorylated CREB immunohistochemistry in brain after food-in-diet dosing; assay type: in vivo, mice; conditions: 18 days food-in-diet, 10 and 100 mg/kg/day (FIG. 2)
# Method: In vivo signaling studies were conducted to examine the biochemical pathways that may be mechanistically involved in the cognitive efficacy associated with Compound AA. An important signaling process that serves as a biochemical correlate of synaptic plasticity underlying learning and memory is the phosphorylation of CREB (c-AMP-response element binding protein), a transcription factor critical to long-term memory.
# (§2) Male CD-1 mice were obtained from Charles River, Wilmington, Mass. Mice were group-housed 10 per cage. The body weight upon arrival was 20-25 g. Food and water were available ad libitum except during experiments. […]
# Following perfusion, brains were removed and postfixed in 20% sucrose-PBS (phosphate buffered saline) overnight and subsequently cut on a cryostat (40 μm coronal sections) and collected as free-floating sections in PBS. […] Immuno-reactivity (IR) was quantified using an image analysis system (Leica, Quantimet 500) that determined number and/or area of peroxidase substrate-positive stained neurons from digitized photomicrographs according to a pixel gray level empirically determined prior to analysis. Overall statistical significance was determined using a one-way ANOVA, with Dunnett's post hoc analyses used to determine significance (p<0.05 was considered significant).
# Male CD-1 mice [3] = assay: 24-hour inhibitory avoidance task in mice, drug-in-diet dosing; assay type: in vivo; conditions: drug-in-diet 10 and 100 mg/kg/day in Western diet, tested from day 17, vs vehicle control mice (FIG. 1)
# Method: The 24-hour inhibitory avoidance task in mice is a measure of one-trial learning and memory consolidation in response to a discrete aversive event (foot-shock). Mice are first placed in an illuminated compartment of a two-compartment apparatus. Mice will naturally step through into an adjoining dark compartment, which they prefer. When the mice enter the dark they receive a mild foot-shock. To assess memory, mice are tested 24 hours later and the length of time the animal refrains from entering the dark compartment is recorded (higher latencies indicate improved memory for the aversive event).
# as §2
# On the first day of testing (17 days after drug-in-diet was presented) mice were removed from the colony room in their home cage, brought to the testing room, and left undisturbed for 2 hours prior to testing initiation. […] The latency to enter the dark chamber was recorded and was the dependent variable measured for assessing memory retention (latency is defined as entry of the whole mouse; all 4 paws on the grids in the dark side, plus the tail in the chamber for 5 sec; 180 sec is maximum latency). Data were analyzed using Mann Whitney U comparisons. […]
# Male CD-1 mice [4] = assay: 24-hour inhibitory avoidance in mice, subchronic (3 administration) dosing; assay type: in vivo; conditions: 30 mg/kg PO, BID the day before training and one hour before training, vs vehicle control mice (FIG. 3)
# Method: Male CD-1 mice were obtained from Charles River, Wilmington, Mass. Mice were group-housed 10 per cage. The body weight upon arrival was 20-25 g. Food and water were available ad libitum except during experiments. Animals were acclimated to the animal facilities for a period of at least one week prior to commencement of experiments. Animals were tested in the light phase of a 12-hour light:12-hour dark schedule (lights on 0600 hours).
# Compound AA and Compound BB were synthesized at Abbott Laboratories. […] Compound AA was administered in a cloudy, fine suspension, while Compound BB was administered in a solution.
# On training day, mice were injected with Compound AA, Compound BB or vehicle one-hour PO before training. One hour following injection (start of training) mice were subjected to a training session in which they were placed in a lighted compartment of a two-compartment chamber (Gemini apparatus, San Diego Instruments, San Diego, Calif.) with a manually operated gate separating the compartments. […] Twenty-four hours later mice were again tested in the same apparatus, except without shock, and the transfer latency from the lighted to the dark compartment recorded and used as an index of memory for the punished response 24 hours earlier. […] Data were analyzed using Mann Whitney U comparisons. […]
Structure (SMILES),microdialysate serotonin (5-HT) levels [1],short-term memory retention (social recognition) (Male Sprague Dawley rats),reduction of total sleep time (Fisher rats; 8 h period) [%],reduction of number of REM sleep episodes (Fisher rats; 8 h period (FIG. 5a)) [%],reduction of REM time (Fisher rats; 8 h period (FIG. 5b)) [%],increase of latency to first REM (Fisher rats; 8 h period (FIG. 5c)) [%],ACh release under resting conditions ([2]; acute),ACh release under challenging conditions (home cage to novel cage and back) ([2]; cortex and hippocampus (FIGS. 6a-6c)),"ex vivo inhibition of monkey brain, fat and liver HSD1 (HSD-1; 2.5 and 16 hours following a single oral 10 mg/kg dose)","HSD-1 ex vivo activity, Mean % Veh Control (HSD-1; Cerebral Cortex, 16 hours after single 10 mg/kg oral dose) [%]","HSD-1 ex vivo activity, Mean % Veh Control (HSD-1; Hippocampus, 16 hours after single 10 mg/kg oral dose) [%]","HSD-1 ex vivo activity, Mean % Veh Control (HSD-1; Liver, 2.5 hours after single 10 mg/kg oral dose) [%]","HSD-1 ex vivo activity, Mean % Veh Control (HSD-1; Liver, 16 hours after single 10 mg/kg oral dose) [%]","HSD-1 ex vivo activity, Mean % Veh Control (HSD-1; Mesenteric Fat, 2.5 hours after single 10 mg/kg oral dose) [%]","HSD-1 ex vivo activity, Mean % Veh Control (HSD-1; Mesenteric Fat, 16 hours after single 10 mg/kg oral dose) [%]",phosphorylated CREB immuno-reactivity (phosphorylated CREB),"memory retention (Mean Transfer Latency), 24-hour inhibitory avoidance (Male CD-1 mice [3])","memory retention (transfer latency), 24-hour inhibitory avoidance (Male CD-1 mice [4])"
"O=C(CN1CCN(c2ccc(C(F)(F)F)cn2)CC1)NC1C2CC3CC1CC(O)(C3)C2 (stereo not drawn) [Compound CC, N-[(E)-5-Hydroxy-2-adamantyl]-2-{4-[5-(trifluoromethyl)pyridin-2-yl]piperazin-1-yl}acetamide]",long-lasting increase of serotonin (5-HT) levels,significant improvement in short-term memory retention,10,16,23,62,did not change ACh release,did not induce any further stimulation of ACh release,–,–,–,–,–,–,–,–,–,–
"CC(C)(Oc1ccc(F)cc1Cl)C(=O)NC1C2CC3CC1CC(S(C)(=O)=O)(C3)C2 (stereo not drawn) [S, 2-(2-Chloro-4-fluorophenoxy)-2-methyl-N-[(E)-5-(methylsulfonyl)-2-adamantyl]propanamide]",–,–,–,–,–,–,–,–,potent ex vivo inhibition,30,42,38,9,90,50,increase in phosphorylated CREB,significant improvement in memory retention,significant improvement in memory retention
